Two sequences from ChEMBL document CHEMBL1909046, “DrugMatrix in vitro pharmacology data” can be followed below.

Broadly, the IC50 is the concentration that inhibits the measured activity by half.

Data set [1] deals with Sigma non-opioid intracellular receptor 1 (Homo sapiens, UniProt Q99720). Put plainly: DRUGMATRIX: Sigma1 radioligand binding (ligand: [3H] Haloperidol). Format: cell membranes, Jurkat, Membrane. The settings on record: jurkat; Not Active = under 50% inhibition at 10 µM.
In data set [2] the target is Vascular endothelial growth factor receptor 1 (Homo sapiens, UniProt P17948). In kind it is cell-based. Particulars: huvec. Also: in other assays of this panel Not Active means under 50% inhibition at 10 µM.
Sequence of Vascular endothelial growth factor receptor 1 (P17948 whole entry): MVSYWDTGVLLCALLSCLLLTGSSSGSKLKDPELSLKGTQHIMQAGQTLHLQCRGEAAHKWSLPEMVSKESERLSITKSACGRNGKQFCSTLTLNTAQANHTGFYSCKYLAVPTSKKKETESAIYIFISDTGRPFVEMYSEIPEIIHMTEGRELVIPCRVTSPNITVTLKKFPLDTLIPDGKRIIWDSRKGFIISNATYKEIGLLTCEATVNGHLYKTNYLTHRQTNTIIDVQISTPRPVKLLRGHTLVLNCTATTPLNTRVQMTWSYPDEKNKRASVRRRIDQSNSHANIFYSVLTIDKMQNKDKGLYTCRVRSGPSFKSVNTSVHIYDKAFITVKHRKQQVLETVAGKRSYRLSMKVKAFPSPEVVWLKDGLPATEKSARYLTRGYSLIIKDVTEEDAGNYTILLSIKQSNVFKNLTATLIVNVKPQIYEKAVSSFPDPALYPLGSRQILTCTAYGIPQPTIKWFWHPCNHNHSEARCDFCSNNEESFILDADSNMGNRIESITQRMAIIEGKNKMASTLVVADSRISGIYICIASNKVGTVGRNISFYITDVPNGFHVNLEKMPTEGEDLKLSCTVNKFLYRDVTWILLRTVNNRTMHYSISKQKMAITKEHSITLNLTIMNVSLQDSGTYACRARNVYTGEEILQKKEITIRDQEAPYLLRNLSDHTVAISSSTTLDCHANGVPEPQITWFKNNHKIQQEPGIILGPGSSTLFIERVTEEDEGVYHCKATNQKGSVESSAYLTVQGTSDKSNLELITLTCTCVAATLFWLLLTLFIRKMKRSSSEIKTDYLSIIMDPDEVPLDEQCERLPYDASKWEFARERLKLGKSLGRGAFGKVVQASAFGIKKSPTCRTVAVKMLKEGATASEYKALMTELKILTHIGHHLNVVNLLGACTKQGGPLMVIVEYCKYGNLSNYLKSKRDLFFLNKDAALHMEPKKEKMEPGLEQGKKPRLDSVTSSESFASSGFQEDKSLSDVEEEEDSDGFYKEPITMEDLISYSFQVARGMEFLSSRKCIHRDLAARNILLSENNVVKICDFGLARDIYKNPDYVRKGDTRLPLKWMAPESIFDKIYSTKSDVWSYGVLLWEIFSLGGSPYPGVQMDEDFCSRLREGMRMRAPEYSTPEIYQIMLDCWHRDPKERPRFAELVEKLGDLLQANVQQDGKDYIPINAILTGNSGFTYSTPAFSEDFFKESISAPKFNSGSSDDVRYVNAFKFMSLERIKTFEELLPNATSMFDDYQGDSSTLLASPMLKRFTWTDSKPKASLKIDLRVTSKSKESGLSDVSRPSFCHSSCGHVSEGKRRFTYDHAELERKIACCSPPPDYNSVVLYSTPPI
The target of data set [3] is T1, Cholecystokinin receptor type A (Homo sapiens, UniProt P32238). Also: in other assays of this panel Not Active means under 50% inhibition at 10 µM.
T1 sequence (P32238 whole entry): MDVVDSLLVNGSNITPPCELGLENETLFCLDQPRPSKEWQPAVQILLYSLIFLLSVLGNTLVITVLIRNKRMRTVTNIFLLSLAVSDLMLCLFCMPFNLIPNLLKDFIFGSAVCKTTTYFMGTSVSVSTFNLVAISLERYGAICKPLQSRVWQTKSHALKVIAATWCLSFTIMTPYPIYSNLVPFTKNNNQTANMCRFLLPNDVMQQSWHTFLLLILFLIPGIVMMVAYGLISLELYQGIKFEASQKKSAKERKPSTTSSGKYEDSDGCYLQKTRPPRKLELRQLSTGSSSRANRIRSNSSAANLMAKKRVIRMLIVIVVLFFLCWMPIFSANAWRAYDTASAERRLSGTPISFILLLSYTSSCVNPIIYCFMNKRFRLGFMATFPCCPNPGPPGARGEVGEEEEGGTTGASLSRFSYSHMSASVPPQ
In kind it is cell membranes, Membrane. Particulars: 1321-n1.

For data set [4], the target named is T2, 3-hydroxy-3-methylglutaryl-coenzyme A reductase (Homo sapiens, UniProt P04035).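 Also: enzyme inhibition assay of HMG-CoA reductase using radiolabeled [14C]HMG-CoA as substrate; in other assays of this panel Not Active means under 50% inhibition at 10 µM.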
T2 sequence (P04035 whole entry): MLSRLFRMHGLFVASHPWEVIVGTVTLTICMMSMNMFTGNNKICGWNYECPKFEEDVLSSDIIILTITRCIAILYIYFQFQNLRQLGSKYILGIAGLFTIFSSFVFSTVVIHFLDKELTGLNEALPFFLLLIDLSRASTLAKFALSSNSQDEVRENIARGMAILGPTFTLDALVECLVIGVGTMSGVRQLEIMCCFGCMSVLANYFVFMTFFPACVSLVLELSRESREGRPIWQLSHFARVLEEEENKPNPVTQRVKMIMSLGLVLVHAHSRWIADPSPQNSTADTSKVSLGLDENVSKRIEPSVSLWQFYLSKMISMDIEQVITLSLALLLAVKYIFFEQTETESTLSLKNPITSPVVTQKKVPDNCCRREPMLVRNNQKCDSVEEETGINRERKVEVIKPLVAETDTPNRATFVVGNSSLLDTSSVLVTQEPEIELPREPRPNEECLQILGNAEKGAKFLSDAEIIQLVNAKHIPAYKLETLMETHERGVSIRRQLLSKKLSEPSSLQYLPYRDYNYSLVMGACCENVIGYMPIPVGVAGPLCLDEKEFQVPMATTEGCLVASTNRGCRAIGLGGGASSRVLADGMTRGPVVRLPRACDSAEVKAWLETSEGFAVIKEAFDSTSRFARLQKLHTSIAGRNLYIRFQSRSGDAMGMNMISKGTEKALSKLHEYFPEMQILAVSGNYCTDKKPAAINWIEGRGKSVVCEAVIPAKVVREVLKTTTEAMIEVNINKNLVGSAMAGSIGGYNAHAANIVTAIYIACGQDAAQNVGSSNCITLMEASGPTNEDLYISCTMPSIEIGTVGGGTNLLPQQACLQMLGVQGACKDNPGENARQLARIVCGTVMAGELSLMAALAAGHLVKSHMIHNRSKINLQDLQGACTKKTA
Set-up: species or system Escherichia coli.

Data set [5] can be described thus: DRUGMATRIX: Potassium Channel [KATP] radioligand binding (ligand: [3H] Glyburide). The settings on record: hit-t15; Not Active = under 50% inhibition at 10 µM. In kind it is cell membranes, Membrane.
Data set [6] concerns the target T3, Progesterone receptor (Bos taurus, UniProt Q690N0).
T3 sequence (Q690N0 whole entry): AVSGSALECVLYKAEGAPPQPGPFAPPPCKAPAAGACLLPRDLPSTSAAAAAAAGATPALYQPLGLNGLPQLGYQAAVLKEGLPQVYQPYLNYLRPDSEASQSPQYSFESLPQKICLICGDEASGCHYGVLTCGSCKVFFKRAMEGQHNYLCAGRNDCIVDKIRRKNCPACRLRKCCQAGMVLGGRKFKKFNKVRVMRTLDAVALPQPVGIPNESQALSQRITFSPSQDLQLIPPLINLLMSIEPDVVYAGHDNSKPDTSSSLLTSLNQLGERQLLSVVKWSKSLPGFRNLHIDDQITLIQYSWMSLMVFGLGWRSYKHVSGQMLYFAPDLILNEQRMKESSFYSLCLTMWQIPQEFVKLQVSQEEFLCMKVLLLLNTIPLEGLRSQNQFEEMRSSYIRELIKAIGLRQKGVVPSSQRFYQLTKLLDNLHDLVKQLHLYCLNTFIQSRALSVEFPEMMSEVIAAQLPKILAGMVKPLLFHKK
Put plainly: DRUGMATRIX: Progesterone radioligand binding (ligand: [3H] R-5020). Format: tissue-based, Uterus. The settings on record: Not Active = under 50% inhibition at 10 µM.

Data set [7] deals with T4, Neutrophil elastase (Homo sapiens, UniProt P08246).
T4 sequence (P08246 whole entry): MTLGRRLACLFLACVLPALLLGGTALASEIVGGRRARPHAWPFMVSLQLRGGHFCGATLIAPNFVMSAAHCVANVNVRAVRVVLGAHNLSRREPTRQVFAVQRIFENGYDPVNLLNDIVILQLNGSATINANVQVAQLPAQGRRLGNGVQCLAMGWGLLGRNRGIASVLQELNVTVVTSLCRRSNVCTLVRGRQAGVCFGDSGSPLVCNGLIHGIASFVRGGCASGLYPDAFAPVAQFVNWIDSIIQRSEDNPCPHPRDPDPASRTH
In kind it is tissue-based.

Data set [8] has as its target Epidermal growth factor receptor (Homo sapiens, UniProt P00533). Put plainly: DRUGMATRIX: Protein Tyrosine Kinase, EGF Receptor enzyme inhibition (substrate: Poly(Glu:Tyr)). Format: cell-based, Insect cells. The settings on record: insect cells, Not Active = under 50% inhibition at 10 µM.
Data set [9] concerns the target Cytochrome P450 2C19 (Homo sapiens, UniProt P33261). Particulars: bti-tn-5b1-4. Also: in other assays of this panel Not Active means under 50% inhibition at 10 µM.

Sequence of Cytochrome P450 2C19 (P33261 whole entry): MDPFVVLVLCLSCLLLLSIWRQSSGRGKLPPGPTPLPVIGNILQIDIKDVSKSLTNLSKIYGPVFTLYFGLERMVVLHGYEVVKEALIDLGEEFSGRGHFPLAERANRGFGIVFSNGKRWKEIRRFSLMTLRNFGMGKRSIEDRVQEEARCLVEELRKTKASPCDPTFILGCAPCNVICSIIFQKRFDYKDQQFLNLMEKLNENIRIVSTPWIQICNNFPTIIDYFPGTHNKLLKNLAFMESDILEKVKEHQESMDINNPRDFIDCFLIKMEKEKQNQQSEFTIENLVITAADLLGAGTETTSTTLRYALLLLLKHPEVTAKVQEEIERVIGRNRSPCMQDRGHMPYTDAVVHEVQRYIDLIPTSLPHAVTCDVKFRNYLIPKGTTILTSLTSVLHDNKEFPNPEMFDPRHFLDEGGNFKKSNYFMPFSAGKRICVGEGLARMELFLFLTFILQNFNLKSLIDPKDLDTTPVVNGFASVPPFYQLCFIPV
Sequence of Sigma non-opioid intracellular receptor 1 (Q99720 whole entry): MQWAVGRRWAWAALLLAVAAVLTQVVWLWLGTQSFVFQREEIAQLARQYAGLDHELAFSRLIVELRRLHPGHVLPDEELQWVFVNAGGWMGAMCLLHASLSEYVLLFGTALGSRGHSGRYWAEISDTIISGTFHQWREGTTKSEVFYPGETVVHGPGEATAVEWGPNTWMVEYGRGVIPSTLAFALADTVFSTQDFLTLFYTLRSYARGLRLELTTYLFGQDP

With CISPLATIN, the IC50 result in data set [1], in data set [2], in data set [3], in data set [4], in [5] and in [6] was “Not Active” in each case. Also, the IC50 entry is “Not Active” in data set [7], 2620 nM in data set [8] (read-out: IC50) and “Not Active” in data set [9]. The Ki entry in data set [1], in data set [2], in [3], in data set [4], in data set [5] and in [6] was “Not Active” each time. Also, the Ki result in data set [7] and in data set [9] was “Not Active” each time.

Regarding OXALIPLATIN, the IC50 entry in data set [1], in data set [2], in data set [3], in [4], in [5] and in [6] was “Not Active” in each case. Also, the IC50 entry in data set [7], in [8] and in [9] was “Not Active” each time. Further, the Ki entry in [1], in data set [2], in data set [3], in data set [4], in [5] and in [6] was “Not Active” in each case. Moreover, the Ki result in data set [7], in data set [8] and in data set [9] was “Not Active” in each case.
